We go through one compound from patent US6767900B2, “Phosphonate nucleotide compound” (Mitsubishi Pharma Corporation, priority 2000, dated 2004).

One data set relates to Hepatitis B Virus (HBV). Description: Inhibitory effect against growth of hepatitis B virus (HBV-DNA synthesis in HB611 cells, Southern blotting). Type of data set: cell-based. The note with it: read-out: 50% inhibition concentration against HBV-DNA synthesis; HB611 cells (recombinant human hepatoma cells producing HBV); test compound 0.005 to 100 μM from day 8; DNA collected day 17.

A further data set deals with HB611 cells. The experiment in a line: Cytotoxicity to HB611 cells. Type of data set: cell-based, human. The method, then:
The inhibitory effect of the compound of the present invention against the growth of an HBV was measured by a known method (K. Ueda, et al., Virology, 169, 213-216 (1989)). 2×10^4 of HB611 cells (recombinant human hepatoma cells producing HBV) were cultured at 37° C. in Dulbecco ME medium containing 10% fetal bovine serum, streptomycin (100 μg/ml), penicillin (100IU/ml) and Genetisin (trade name, antibiotic by LifeTechnologies) (0.2 mg/ml). At the second day and the fifth day of culturing, the medium was replaced by a fresh medium, and then at the eighth day, the eleventh day and the fourteenth day of culturing, the medium was replaced with a medium containing 0.005 to 100 μM (final concentration) of the test compound, and at the seventeenth day of culturing, DNA of the cells were collected. […] Moreover, a concentration of the compounds required to kill 50% of HB611 cells was determined.
Each compound number in the table corresponds to the compound number in Table 1. For reference, the results of the evaluation of the compounds described in EP785208 are also shown.

For `Nc1nc(Sc2ccc(O)cc2)c2ncn(CCOCP(=O)(OCC(F)(F)F)OCC(F)(F)F)c2n1` [Compound No. 3, 2-amino-9-[2-(phosphonomethoxy)ethyl]-6-(4-hydroxyphenylthio)purine bis(2,2,2-trifluoroethyl) ester], in the data set on Hepatitis B Virus (HBV), the IC50 was 50 nM. Besides, the “Cytotoxic concentration required to kill 50% of HB611 cells” value in the data set with HB611 cells was >1,000 μM.
